Laboratory results as given in patent US11161842B2, “Bifunctional molecules for degradation of EGFR and methods of use” (Dana-Farber Cancer Institute, Inc., priority 2016, dated 2021).

How the values were obtained:
[1] = molecular target: T1, T790M/L858R transformed Ba/F3 cells (Homo sapiens, UniProt P00533, T790M/L858R, cells depend on it); assay: Ba/F3 cell proliferation (MTS) assay, T790M/L858R; type: cell-based, murine; conditions: for EC50: antiproliferative activity; for % control: compound at 1 μM, inhibition of growth as percent of control
T1 construct: The constructs were shuttled into the retroviral vector JP 1540 using the BD Creator™ System (BD Biosciences)
T1 sequence (P00533 whole entry T790M/L858R): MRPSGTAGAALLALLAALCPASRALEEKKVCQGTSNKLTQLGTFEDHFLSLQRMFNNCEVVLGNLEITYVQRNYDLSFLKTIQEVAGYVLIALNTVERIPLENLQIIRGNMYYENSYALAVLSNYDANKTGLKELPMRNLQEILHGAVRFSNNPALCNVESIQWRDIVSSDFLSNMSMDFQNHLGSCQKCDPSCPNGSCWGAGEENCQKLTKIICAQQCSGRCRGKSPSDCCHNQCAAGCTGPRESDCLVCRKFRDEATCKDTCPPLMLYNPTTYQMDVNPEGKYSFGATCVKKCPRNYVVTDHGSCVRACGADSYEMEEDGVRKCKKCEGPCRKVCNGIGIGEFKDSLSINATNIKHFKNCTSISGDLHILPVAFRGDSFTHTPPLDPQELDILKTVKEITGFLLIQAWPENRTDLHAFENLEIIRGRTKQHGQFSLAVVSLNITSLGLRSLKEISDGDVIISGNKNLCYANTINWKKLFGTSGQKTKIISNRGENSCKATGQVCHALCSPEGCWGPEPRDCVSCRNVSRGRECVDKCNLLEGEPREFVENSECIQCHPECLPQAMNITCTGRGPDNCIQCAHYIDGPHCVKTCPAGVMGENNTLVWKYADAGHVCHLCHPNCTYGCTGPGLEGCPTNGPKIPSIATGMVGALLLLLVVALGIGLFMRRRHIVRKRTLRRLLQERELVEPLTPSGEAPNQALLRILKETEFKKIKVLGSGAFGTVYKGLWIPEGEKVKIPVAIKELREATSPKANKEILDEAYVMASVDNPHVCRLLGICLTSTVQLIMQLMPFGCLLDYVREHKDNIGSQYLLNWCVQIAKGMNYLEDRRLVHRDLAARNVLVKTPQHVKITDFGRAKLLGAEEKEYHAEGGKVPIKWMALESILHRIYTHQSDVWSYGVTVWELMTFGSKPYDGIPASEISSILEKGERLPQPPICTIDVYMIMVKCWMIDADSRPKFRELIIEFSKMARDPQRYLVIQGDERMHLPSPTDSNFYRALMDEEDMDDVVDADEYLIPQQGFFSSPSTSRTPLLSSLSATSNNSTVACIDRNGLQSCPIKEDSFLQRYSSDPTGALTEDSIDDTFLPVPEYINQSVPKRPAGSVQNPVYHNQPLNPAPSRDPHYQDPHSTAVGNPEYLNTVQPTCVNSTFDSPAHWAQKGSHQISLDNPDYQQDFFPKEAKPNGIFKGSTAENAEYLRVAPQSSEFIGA
Excerpt: The EGFR mutant L858R, Del E746_A750, L858R/T790M, DelE746_A750/T790M, L858R/T790M/C797S and Del/T790M/C797S Ba/F3 cells have been previously described (Zhou, W., Ercan, D., Chen, L., Yun, C. H., Li, D., Capelletti, M., Cortot, A. B., Chirieac, L., Iacob, R. E., Padera, R., et al. “Novel mutant-selective EGFR kinase inhibitors against EGFR T790M,” Nature 462, (2009), 1070-1074). All cell lines were maintained in RPMI 1640 (Cellgro; Mediatech Inc., Herndon, Calif.) supplemented with 10% FBS 100 units/mL penicillin, 100 units/mL streptomycin, and 2 mM glutamine. L858R cells were maintained in ACL-4 media (Invitrogen, Carlsbad, Calif.) supplemented with 5% FBS, 100 units/mL penicillin, 100 units/mL streptomycin, and 2 mM glutamine. The EGFR I941R mutation was introduced via site directed mutagenesis using the Quick Change Site-Directed Mutagenesis kit (Stratagene; La Jolla, Calif.) according to the manufacturer's instructions. All constructs were confirmed by DNA sequencing. The constructs were shuttled into the retroviral vector JP 1540 using the BD Creator™ System (BD Biosciences). Ba/F3 cells were infected with retrovirus and according to standard protocols, as described previously (Zhou et al, Nature 2009). Stable clones were obtained by selection in puromycin (2 μg/ml).
Growth and inhibition of growth was assessed by MTS assay and was performed according to previously established methods (Zhou et al., Nature 2009). The MTS assay is a colorimetric method for determining the number of viable cells that is based on the bioreduction of MTS by cells to a formazan product that is soluble in cell culture medium and can be detected spectrophotometrically. Ba/F3 cells of different EGFR genotypes were exposed to treatment for 72 hours and the number of cells used per experiment determined empirically and has been previously established (Zhou et al., Nature 2009). All experimental points were set up in six wells and all experiments were repeated at least three times. […] The curves were fitted using a non-linear regression model with a sigmoidal dose response.
Compounds of Table 1 were tested at a concentration of 1 μM against T790M/L858R transformed Ba/F3 cells. The assay, as described in Example 42, measured inhibition of growth as a percent of the inhibitory activity of the control. In Table 1, A is 0<% control <25, B is 25<% control <50, C is 50<% control <75, and D is 75<% control.
Compounds of Table 2 were tested in a T790M/L858R transformed Ba/F3 cell line as described in Example 42 and the EC50 values were calculated. In Table 2, A is EC50<500 nM, B is 500 nM<EC50<1000 nM, C is 1000 nM<EC50<5000 nM, and D is 5000 nM<EC50.

[2] = molecular target: T2, T790M/L858R/C797S transformed Ba/F3 cells (Homo sapiens, UniProt P00533, T790M/C797S/L858R, cells depend on it); assay: Ba/F3 cell proliferation (MTS) assay, T790M/L858R/C797S; type: cell-based, murine; conditions: antiproliferative activity
T2 construct: The constructs were shuttled into the retroviral vector JP 1540 using the BD Creator™ System (BD Biosciences)
T2 sequence (P00533 whole entry T790M/C797S/L858R): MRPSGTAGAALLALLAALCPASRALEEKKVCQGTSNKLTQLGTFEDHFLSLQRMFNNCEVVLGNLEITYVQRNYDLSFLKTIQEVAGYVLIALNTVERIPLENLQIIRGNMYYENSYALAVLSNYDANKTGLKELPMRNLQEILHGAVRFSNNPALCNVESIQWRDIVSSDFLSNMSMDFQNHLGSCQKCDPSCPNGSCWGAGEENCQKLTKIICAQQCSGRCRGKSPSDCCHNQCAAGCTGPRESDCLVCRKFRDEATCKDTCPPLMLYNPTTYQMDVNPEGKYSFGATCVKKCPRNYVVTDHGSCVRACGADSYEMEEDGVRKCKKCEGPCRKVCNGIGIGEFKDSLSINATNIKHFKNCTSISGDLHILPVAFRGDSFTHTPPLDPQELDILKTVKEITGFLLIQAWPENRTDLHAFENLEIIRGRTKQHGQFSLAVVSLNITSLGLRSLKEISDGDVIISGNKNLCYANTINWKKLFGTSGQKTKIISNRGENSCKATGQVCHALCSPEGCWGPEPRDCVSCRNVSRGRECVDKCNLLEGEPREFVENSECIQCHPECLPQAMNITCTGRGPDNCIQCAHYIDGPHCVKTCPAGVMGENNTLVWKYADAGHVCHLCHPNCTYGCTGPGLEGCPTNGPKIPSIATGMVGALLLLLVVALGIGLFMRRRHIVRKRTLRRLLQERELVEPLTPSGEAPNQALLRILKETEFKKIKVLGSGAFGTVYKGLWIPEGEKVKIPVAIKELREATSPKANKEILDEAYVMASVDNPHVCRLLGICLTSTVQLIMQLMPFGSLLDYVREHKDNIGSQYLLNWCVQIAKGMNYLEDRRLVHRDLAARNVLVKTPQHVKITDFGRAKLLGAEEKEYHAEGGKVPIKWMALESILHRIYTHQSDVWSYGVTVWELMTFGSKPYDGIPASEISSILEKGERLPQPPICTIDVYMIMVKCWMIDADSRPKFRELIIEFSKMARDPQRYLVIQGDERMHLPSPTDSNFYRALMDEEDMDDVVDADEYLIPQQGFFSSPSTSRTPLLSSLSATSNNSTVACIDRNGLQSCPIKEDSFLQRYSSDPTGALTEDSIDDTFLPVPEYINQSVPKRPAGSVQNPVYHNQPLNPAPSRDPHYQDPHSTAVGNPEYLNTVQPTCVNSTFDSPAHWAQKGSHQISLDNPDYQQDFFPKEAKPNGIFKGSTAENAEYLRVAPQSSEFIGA

Row | SMILES | EC50 [1] [nM] | % control [1] | EC50 [2] [nM]
1 | Cc1ncsc1-c1ccc([C@H](C)NC(=O)[C@@H]2C[C@@H](O)CN2C(=O)[C@@H](NC(=O)CCOCCOCCOCCN2CCN(c3ccc(-c4ccc5c(c4)C(=O)N(C(C(=O)Nc4nccs4)c4ccccc4)C5)cn3)CC2)C(C)(C)C)cc1 (stereo partly drawn) [Compound I-23, (2S,4R)-1-((14S)-14-(tert-Butyl)-12-oxo-1-(4-(5-(3-oxo-2-(2-oxo-1-phenyl-2-(thiazol-2-ylamino)ethyl)isoindolin-5-yl)pyridin-2-yl)piperazin-1-yl)-3,6,9-trioxa-13-azapentadecan-15-oyl)-4-hydroxy-N—((S)-1-(4-(4-methylthiazol-5-yl)phenyl)ethyl)pyrrolidine-2-carboxamide] | > 5000 | D (D is 75<% control) | > 5000
2 | O=C1CCC(N2C(=O)c3cccc(NCCCCCCCCN4CCN(c5ccc(-c6ccc7c(c6)C(=O)N(C(C(=O)Nc6nccs6)c6cc(F)ccc6O)C7)cc5)CC4)c3C2=O)C(=O)N1 (stereo not drawn) [Compound I-12, 2-(6-(4-(4-(8-((2-(2,6-Dioxopiperidin-3-yl)-1,3-dioxoisoindolin-4-yl)amino)octyl)piperazin-1-yl)phenyl)-1-oxoisoindolin-2-yl)-2-(5-fluoro-2-hydroxyphenyl)-N-(thiazol-2-yl)acetamide] | 1000 to 5000 | B (B is 25<% control <50) | > 5000
3 | O=C1CCC(N2C(=O)c3cccc(NCCOCCOCCOCCN4CCN(c5ccc(-c6ccc7c(c6)C(=O)N(C(C(=O)Nc6nccs6)c6cc(F)ccc6O)C7)cc5)CC4)c3C2=O)C(=O)N1 (stereo not drawn) [Compound I-10, 2-(6-(4-(4-(2-(2-(2-(2-((2-(2,6-Dioxopiperidin-3-yl)-1,3-dioxoisoindolin-4-yl)amino)ethoxy)ethoxy)ethoxy)ethyl)piperazin-1-yl)phenyl)-1-oxoisoindolin-2-yl)-2-(5-fluoro-2-hydroxyphenyl)-N-(thiazol-2-yl)acetamide] | 1000 to 5000 | B (B is 25<% control <50) | > 5000

Now those with a lower EC50 [1], led by results:

Row | EC50 [1] [nM] | % control [1] | EC50 [2] [nM] | SMILES
4 | < 500 | A (A is 0<% control <25) | 500 to 1000 | O=C1CCC(N2C(=O)c3cccc(NCCOCCOCCOCCN4CCN(c5ccc(-c6ccc7c(c6)C(=O)N(C(C(=O)Nc6nccs6)c6ccccc6)C7)cn5)CC4)c3C2=O)C(=O)N1 (stereo not drawn) [Compound I-22, 2-(6-(6-(4-(2-(2-(2-(2-((2-(2,6-Dioxopiperidin-3-yl)-1,3-dioxoisoindolin-4-yl)amino)ethoxy)ethoxy)ethoxy)ethyl)piperazin-1-yl)pyridin-3-yl)-1-oxoisoindolin-2-yl)-2-phenyl-N-(thiazol-2-yl)acetamide]
5 | < 500 | A (A is 0<% control <25) | 1000 to 5000 | O=C1CCC(N2C(=O)c3cccc(NCCOCCOCCN4CCN(c5ccc(-c6ccc7c(c6)C(=O)N(C(C(=O)Nc6nccs6)c6cc(F)ccc6O)C7)cc5)CC4)c3C2=O)C(=O)N1 (stereo not drawn) [Compound I-33]
